Organism: Rattus norvegicus
Assay: DrugMatrix - Regimen: Daily Repeat
Format: toxicity, organism-based, Sprague-Dawley
Design: regimen Daily Repeat, gender Male, age 6-8 weeks
Details: in vivo, po, route oral GAVAGE, vehicle 100 % WATER; for ALANINE AMINOTRANSFERASE / ALBUMIN / ALKALINE PHOSPHATASE / ASPARTATE AMINOTRANSFERASE / BLOOD UREA NITROGEN / CARBON DIOXIDE / CHLORIDE / CHOLESTEROL / CREATINE PHOSPHOKINASE / CREATININE / GLUCOSE / LACTATE DEHYDROGENASE / LIPASE / PHOSPHORUS / POTASSIUM / SODIUM / TOTAL BILIRUBIN / TOTAL PROTEIN / URIC ACID: tissue Plasma
[1] = 850 mg/kg, 72 h, tissue Blood, dose level M1, time 3 day
[2] = 850 mg/kg, 72 h, dose level M1, time 3 day
[3] = 850 mg/kg, 120 h, tissue Blood, dose level M1, time 5 day
[4] = 850 mg/kg, 120 h, dose level M1, time 5 day

CCCC(CCC)C(=O)O [VALPROIC ACID]
ABSOLUTE LYMPHOCYTE [1]: 8722.33 CELLS/uL
ABSOLUTE MONOCYTE [1]: 267.67 CELLS/uL
ABSOLUTE SEGMENTED NEUTROPHIL [1]: 836 CELLS/uL
BASOPHIL [1]: 0%
EOSINOPHIL [1]: 0.33%
ERYTHROCYTE COUNT [1]: 5.4 x10E6/uL
HEMATOCRIT [1]: 35.27%
LEUKOCYTE COUNT [1]: 9.87 x10E3/uL
LYMPHOCYTE [1]: 89%
MEAN CORPUSCULAR HEMOGLOBIN [1]: 25.37 pg
MEAN CORPUSCULAR HEMOGLOBIN CONCENTRATION [1]: 38.73 G/DL
MEAN CORPUSCULAR VOLUME [1]: 65.5 fL
MONOCYTE [1]: 2.67%
NEUTROPHIL [1]: 8%
NUCLEATED RED BLOOD CELLS [1]: 0 /100WBC
PLATELET COUNT [1]: 1024 x10E3/uL
ALANINE AMINOTRANSFERASE [2]: 50 u/L
ALBUMIN [2]: 3.97 G/DL
ALKALINE PHOSPHATASE [2]: 196.67 u/L
ASPARTATE AMINOTRANSFERASE [2]: 87.67 u/L
BLOOD UREA NITROGEN [2]: 13 mg/dL
CARBON DIOXIDE [2]: 29 mmol/L
CHLORIDE [2]: 99.33 MEQ/L
CHOLESTEROL [2]: 57.67 mg/dL
CREATINE PHOSPHOKINASE [2]: 134.67 u/L
CREATININE [2]: 0.11 mg/dL
GLUCOSE [2]: 145.67 mg/dL
LACTATE DEHYDROGENASE [2]: 142.67 u/L
LIPASE [2]: 9.33 u/L
PHOSPHORUS [2]: 11.37 mg/dL
POTASSIUM [2]: 6.32 MEQ/L
SODIUM [2]: 143.5 MEQ/L
TOTAL BILIRUBIN [2]: 0.23 mg/dL
TOTAL PROTEIN [2]: 5.33 G/DL
URIC ACID [2]: 1.57 mg/dL
ABSOLUTE BASOPHIL [3]: 0 CELLS/uL
ABSOLUTE EOSINOPHIL [3]: 50 CELLS/uL
ABSOLUTE LYMPHOCYTE [3]: 6795.67 CELLS/uL
ABSOLUTE MONOCYTE [3]: 121.33 CELLS/uL
ABSOLUTE SEGMENTED NEUTROPHIL [3]: 433 CELLS/uL
BASOPHIL [3]: 0%
EOSINOPHIL [3]: 0.67%
ERYTHROCYTE COUNT [3]: 5.21 x10E6/uL
HEMATOCRIT [3]: 33.77%
LEUKOCYTE COUNT [3]: 7.4 x10E3/uL
LYMPHOCYTE [3]: 92%
MEAN CORPUSCULAR HEMOGLOBIN [3]: 24.63 pg
MEAN CORPUSCULAR HEMOGLOBIN CONCENTRATION [3]: 38 G/DL
MEAN CORPUSCULAR VOLUME [3]: 64.83 fL
MONOCYTE [3]: 1.67%
NEUTROPHIL [3]: 5.67%
NUCLEATED RED BLOOD CELLS [3]: 0 /100WBC
PLATELET COUNT [3]: 851.33 x10E3/uL
ALANINE AMINOTRANSFERASE [4]: 58.33 u/L
ALBUMIN [4]: 3.83 G/DL
ALKALINE PHOSPHATASE [4]: 272 u/L
ASPARTATE AMINOTRANSFERASE [4]: 99 u/L
BLOOD UREA NITROGEN [4]: 12.67 mg/dL
CARBON DIOXIDE [4]: 31.67 mmol/L
CHLORIDE [4]: 100 MEQ/L
CHOLESTEROL [4]: 60 mg/dL
CREATINE PHOSPHOKINASE [4]: 402 u/L
CREATININE [4]: 0.28 mg/dL
GLUCOSE [4]: 139.67 mg/dL
LACTATE DEHYDROGENASE [4]: 186.33 u/L
LIPASE [4]: 11 u/L
PHOSPHORUS [4]: 11.17 mg/dL
POTASSIUM [4]: 6.05 MEQ/L
SODIUM [4]: 143.73 MEQ/L
TOTAL BILIRUBIN [4]: 0.2 mg/dL
TOTAL PROTEIN [4]: 5.83 G/DL
URIC ACID [4]: 0.5 mg/dL
ABSOLUTE BASOPHIL (1500 mg/kg, 72 h, tissue Blood, dose level High, time 3 day): 0 CELLS/uL

From ChEMBL document CHEMBL3885881, “DrugMatrix”
